Literature values as cited in patent US20050208598A1 (priority 2004, published 2005).

Biological target: avidin (Gallus gallus, UniProt P02701)
Details: read-out: Kd of binding to avidin

Chain of avidin (P02701 25-152, species assumed): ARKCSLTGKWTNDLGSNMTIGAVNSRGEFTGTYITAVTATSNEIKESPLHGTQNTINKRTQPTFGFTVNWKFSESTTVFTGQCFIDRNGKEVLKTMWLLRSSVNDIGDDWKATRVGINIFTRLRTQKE

Row | Kd | Compound
1 | ~6 µM | O=C(O)c1ccccc1N=Nc1ccc(O)cc1 [HABA, 2-(4-hydroxyphenylazo)benzoic acid]
2 | ~0.1 µM | C[C@@H]1NC(=O)N[C@@H]1CCCCCC(=O)O [desthiobiotin]
